In the NIST ThermoML archive (doi:10.1021/je300044x):
Numbers after ± are expanded uncertainties.

How the values were obtained:
[1] = Molar enthalpy of transition or fusion; details: DSC

For `NC(=O)c1cnccn1` [pyrazinecarboxamide], the “Molar enthalpy of transition or fusion” value ([1]; Crystal 1) was 28.1 ± 0.81 kJ/mol, the “Molar enthalpy of transition or fusion” value ([1]; Crystal 2) was 1.63 ± 0.15 kJ/mol and the Normal melting temperature (Crystal 1, DTA) was 188.27 ± 1.1 °C. It also gave a Triple point temperature (Crystal 2, DTA) of 420.36 ± 1.1 K.

`CCn1cc[n+](C)c1.O=S(=O)([N-]S(=O)(=O)C(F)(F)F)C(F)(F)F` gave a Normal melting temperature (Metastable crystal, visual observation) of -16.24 ± 2 °C.
